PMC8765781, “A platform of assays for the discovery of anti-Zika small-molecules with activity in a 3D-bioprinted outer-blood-retina model” (PLoS ONE, 2022)
Where two headings read alike, the source gives them in different places. *1 amine or outer side, *2 acyl side, *3 side chain or, on linkers, in order; H or OH if unused. Where a SMILES comes first, the peptide text is derived from it. [ ]: non-standard residue; d: D form. X3 = CC(CC(O[*:1])C(=O)[*:2])C(=O)O; NMeV = CN[CH](C(=O)O)C(C)C; NMeA = CN[CH](C)C(=O)O; βAla = NCCC(=O)O

Columns and labels:
[1] = tested on: ZIKV-RLuc (Cambodian strain FSS13025); assay: microbe, parasite or virus in culture; format: cell-based, Zika virus; details: for AC50: Zika virus, Vero
[2] = read-out: Log AC50 (M) (converted)

## C[S+]([O-])c1ccc(-c2nc(-c3ccc(F)cc3)c(-c3ccncc3)[nH]2)cc1 (stereo not drawn) [NCGC00025035-05]
Vero cells
  AC50: 47.9 µM
  Log AC50 (M): -4.3199 M
[1]
  CC-v2 (curve class classification v2 of the dose response curve): -2.1
  Efficacy (difference between neutral response and maximum compound response): -107.599
  Max Resp (difference between neutral response and compound response for highest compound concentration): -87.79
  AC50: 4.79e-05 M
[1]; [2]
  AC50: 4.79e-05 M

## CC#C[C@]1(O)CC[C@H]2[C@@H]3CCC4=CC(=O)CCC4=C3[C@@H](c3ccc(N(C)C)cc3)C[C@@]21C [NCGC00025179-12]
Vero cells
  AC50: 26.1 µM
  Log AC50 (M): -4.5827 M
[1]
  CC-v2 (curve class classification v2 of the dose response curve): -3
  Efficacy (difference between neutral response and maximum compound response): -109.046
  Max Resp (difference between neutral response and compound response for highest compound concentration): -95.447
  AC50: 2.61e-05 M
[1]; [2]
  AC50: 2.61e-05 M

## C[C@H]1O[C@@H](O[C@H]2[C@@H](O)C[C@H](O[C@H]3[C@@H](O)C[C@H](O[C@H]4CC[C@@]5(C)[C@H](CC[C@@H]6[C@@H]5C[C@@H](O)[C@]5(C)[C@@H](C7=CC(=O)OC7)CC[C@]65O)C4)O[C@@H]3C)O[C@@H]2C)C[C@H](O)[C@@H]1O [NCGC00090797-01]
Vero cells
  AC50: 0.465 µM
  Log AC50 (M): -6.3327 M
[1]
  CC-v2 (curve class classification v2 of the dose response curve): -1.1
  Efficacy (difference between neutral response and maximum compound response): -107.599
  Max Resp (difference between neutral response and compound response for highest compound concentration): -98.918
  AC50: 4.65e-07 M
[1]; [2]
  AC50: 4.65e-07 M

## COc1ccc(/C=C/C(=O)/C=C/c2ccc(OC)cc2)cc1 [NCGC00336197-02]
[1]
  CC-v2 (curve class classification v2 of the dose response curve): 3
  Efficacy (difference between neutral response and maximum compound response): 41.267
  Max Resp (difference between neutral response and compound response for highest compound concentration): 6.905

## CCc1ccc(C(=O)Nc2cc(CN3CCN(C)CC3)cc(C(F)(F)F)c2)cc1C#Cc1cnc2ccnn2c1 [NCGC00347217-02]
[1]
  CC-v2 (curve class classification v2 of the dose response curve): -3
  Efficacy (difference between neutral response and maximum compound response): -116.826
  Max Resp (difference between neutral response and compound response for highest compound concentration): -100.407

## CN(C)c1cccc(-c2c3c(=O)n(-c4ccccc4Cl)[nH]c3cc(=O)n2C)c1 [NCGC00378460-01]
[1]
  CC-v2 (curve class classification v2 of the dose response curve): 4
  Efficacy (difference between neutral response and maximum compound response): 10.267
  Max Resp (difference between neutral response and compound response for highest compound concentration): 14.909

## CCC(C)C1NC(=O)C2CCCN2C(=O)C(CC(C)C(=O)O)OC(=O)CCNC(=O)C(C)N(C)C(=O)C(C(C)C)N(C)C1=O (stereo not drawn) [NCGC00380598-01] (cyclo([X3]PI[NMeV][NMeA][βAla]); configuration not given here)
[1]
  CC-v2 (curve class classification v2 of the dose response curve): 4
  Efficacy (difference between neutral response and maximum compound response): -20.973
  Max Resp (difference between neutral response and compound response for highest compound concentration): -24.561

## CC1OC(OC2C(c3c(O)cc(OC4OC(CO)C(O)C(O)C4O)c4c(=O)cc(-c5ccc(O)cc5)oc34)OC(CO)C(O)C2O)C(O)C(O)C1O (stereo not drawn) [NCGC00384535-01]
[1]
  CC-v2 (curve class classification v2 of the dose response curve): 4
  Max Resp (difference between neutral response and compound response for highest compound concentration): -6.059

## COc1c(O)c(C(=O)/C=C/c2ccccc2)c(OC)c(OC)c1OC [NCGC00384644-01]
[1]
  CC-v2 (curve class classification v2 of the dose response curve): 4
  Max Resp (difference between neutral response and compound response for highest compound concentration): -2.089

## CC1OC(OC2C(O)COC(O[C@@H]3[C@@H](O)[C@@H](O)[C@H](OC4C(OC(=O)[C@]56CCC(C)(C)CC5C5=CCC7[C@@]8(C)C[C@H](O)[C@H](OC9OC(CO)C(O)C(O)C9O)[C@@](C)(CO)C8[C@H](O)C[C@@]7(C)[C@]5(C)CC6)OCC(O)C4O)O[C@H]3C)C2O)C(O)C(O)C1O (stereo partly drawn) [NCGC00385323-01]
[1]
  CC-v2 (curve class classification v2 of the dose response curve): -3
  Max Resp (difference between neutral response and compound response for highest compound concentration): -39.964

## CC(=O)O[C@H]1C[C@@H]2[C@]3(CC[C@]4(C)[C@@H](C5(C)CCC(C(C)(C)O)O5)[C@@H](O)C[C@@]24C)C[C@@]32CC[C@H](O[C@@H]3OC[C@@H](O)[C@H](O)[C@H]3O)C(C)(C)[C@H]12 (stereo partly drawn) [NCGC00385494-01]
[1]
  CC-v2 (curve class classification v2 of the dose response curve): 4
  Efficacy (difference between neutral response and maximum compound response): 27.089
  Max Resp (difference between neutral response and compound response for highest compound concentration): -22.612

## CCC(C)C(O)C(=O)OC1CC2C(C)(C)C(OC(C)=O)CC(OC(C)=O)C2(C)C2CC(OC(C)=O)C3(C)C(=CCC3c3ccoc3)C12C (stereo not drawn) [NCGC00385571-01]
[1]
  CC-v2 (curve class classification v2 of the dose response curve): -3
  Efficacy (difference between neutral response and maximum compound response): 0
  Max Resp (difference between neutral response and compound response for highest compound concentration): -47.611

## CC1=CC(=O)C(=C(C)C)CC2C(C)(O)CCC12O (stereo not drawn) [NCGC00385849-01]
[1]
  CC-v2 (curve class classification v2 of the dose response curve): -1.2
  Efficacy (difference between neutral response and maximum compound response): -35.641
  Max Resp (difference between neutral response and compound response for highest compound concentration): -12.132
